Patent publication US8232307B2, “Indane-amine derivatives, their preparation and use as medicaments” (Laboratorios del Dr. Esteve, S.A., priority 2007, dated 2012)
Where a name gives a salt, the structure may show the parent alone.

Biological target: T1, Cloned Human Serotonin Receptor, Subtype 7 (h5HT7) (Homo sapiens, UniProt P34969)
T1 construct: purchased PerkinElmer 6120512; host or cells: CHO cells (membranes coated on Basic FlashPlate SMP200)
Assay: Radioligand binding assay, [125I]LSD, h5HT7 expressed in CHO cells
Conditions: radioligand [125I]LSD 0.82 nM; for IC50: read-out: 5-HT7 IC50; for Ki: read-out: 5-HT7 Ki
Description: Radioligand binding assays were performed using the Cloned Human Serotonin Receptor, Subtype 7 (h5HT7), expressed in CHO cells, coated on Flashplate (Basic FlashPlate Cat.: SMP200) from PerkinElmer (Cat.: 6120512). The protocol assay was essentially the recommended protocol in the Technical Data Sheet by PerkinEmer Life and Analytical Sciences. The Mass membrane protein/well was typically 12 μg and the Receptor/well was about 9-10 fmoles. The Flashplate were let equilibrate at room temperature for one hour before the addition of the components of the assay mixture. The binding buffer was: 50 mM Tris-HCl, pH 7.4, containing 10 mM MgCl2, 0.5 mM EDTA and 0.5% BSA. The radioligand was [^125I]LSD at a final concentration of 0.82 nM. Nonspecific binding was determined with 50 μM of Clozapine. The assay volume was 25 μl. TopSeal-A were applied onto Flashplate microplates and they were incubated at room temperature for 240 minutes in darkness. The radioactivity were quantified by liquid scintillation spectrophotometry (Wallac 1450 Microbeta Trilux) with a count delay of 4 minutes prior to counting and a counting time of 30 seconds per well. Competition binding data were analyzed by using the LIGAND program (Munson and Rodbard, LIGAND: A versatile, computerized approach for characterization of ligand-binding systems. Anal. Biochem. 107: 220-239, 1980) and assays were performed in triplicate determinations for each point.

T1 sequence (P34969 whole entry): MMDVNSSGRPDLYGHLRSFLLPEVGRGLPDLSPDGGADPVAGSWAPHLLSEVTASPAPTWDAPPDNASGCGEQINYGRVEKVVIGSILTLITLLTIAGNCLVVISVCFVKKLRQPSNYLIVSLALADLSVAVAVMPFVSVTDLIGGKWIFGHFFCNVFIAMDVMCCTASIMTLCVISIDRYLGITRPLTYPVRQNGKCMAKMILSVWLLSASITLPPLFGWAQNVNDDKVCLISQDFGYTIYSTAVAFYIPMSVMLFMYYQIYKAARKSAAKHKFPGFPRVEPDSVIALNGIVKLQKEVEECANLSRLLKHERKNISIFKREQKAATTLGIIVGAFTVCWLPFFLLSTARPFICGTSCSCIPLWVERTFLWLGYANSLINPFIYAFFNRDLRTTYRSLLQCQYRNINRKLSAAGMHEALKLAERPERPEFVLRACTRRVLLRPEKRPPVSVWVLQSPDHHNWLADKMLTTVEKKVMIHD

| SMILES | IC50 [µM] | Ki [µM] |
| --- | --- | --- |
| Cc1nn(C)c(C)c1-c1ccc2c(c1)C(N(C)C)CC2 (stereo not drawn) [Example 1, Dimethyl-[6-(1,3,5-trimethyl-1H-pyrazol-4-yl)-indan-1-yl]-amine dihydrochloride] | 0.0155 ± 0.0029 | – |
| Cc1nn(C)c(C)c1-c1ccc2c(c1)[C@H](N(C)C)CC2 [Example 2, (R)-Dimethyl-[6-(1,3,5-trimethyl-1H-pyrazol-4-yl)-indan-1-yl]-amine] | 0.0055 ± 0.0027 | – |
| Cc1nn(C)c(C)c1-c1ccc2c(c1)[C@@H](N(C)C)CC2 [Example 3, (S) Dimethyl-[6-(1,3,5-trimethyl-1H-pyrazol-4-yl)-indan-1-yl]-amine] | 0.307 ± 0.181 | – |
| CNC1CCc2ccc(-c3c(C)nn(C)c3C)cc21 (stereo not drawn) [Example 4, Methyl-[6-(1,3,5-trimethyl-1H-pyrazol-4-yl)-indan-1-yl]-amine] | 0.0187 | – |
| COc1cccc(OC)c1-c1ccc2c(c1)C(N(C)C)CC2 (stereo not drawn) [Example 10, [6-(2,6-Dimethoxy-phenyl)-indan-1-yl]-dimethyl-amine] | 0.0535 ± 0.0101 | – |
| CNC1CCc2ccc(-c3c(OC)cccc3OC)cc21 (stereo not drawn) [Example 11, [6-(2,6-Dimethoxy-phenyl)-indan-1-yl]-methyl-amine] | 0.195 ± 0.086 | – |
| COc1ccccc1-c1ccc2c(c1)C(N(C)C)CC2 (stereo not drawn) [Example 12, [6-(2-Methoxy-phenyl)-indan-1-yl]-dimethyl-amine] | 0.0684 ± 0.0011 | – |
| CNC1CCc2ccc(-c3ccccc3OC)cc21 (stereo not drawn) [Example 13, [6-(2-Methoxy-phenyl)-indan-1-yl]-methyl-amine] | 0.0777 ± 0.0409 | – |
| Cc1cccc(C)c1-c1ccc2c(c1)C(N(C)C)CC2 (stereo not drawn) [Example 14, [6-(2,6-Dimethyl-phenyl)-indan-1-yl]-dimethyl-amine] | – | 0.198 ± 0.0319 |
| CNC1CCc2ccc(-c3c(C)cccc3C)cc21 (stereo not drawn) [Example 15, [6-(2,6-Dimethyl-phenyl)-indan-1-yl]-methyl-amine] | – | 0.0752 ± 0.002 |
| CNC1CCc2ccc(-c3c(F)cccc3F)cc21 (stereo not drawn) [Example 19, [6-(2,6-Difluoro-phenyl)-indan-1-yl]-methyl-amine] | – | 0.0476 ± 0.0012 |
| COc1cccc(Cl)c1-c1ccc2c(c1)C(N(C)C)CC2 (stereo not drawn) [Example 20, [6-(2-Chloro-6-methoxy-phenyl)-indan-1-yl]-dimethyl-amine] | – | 0.0258 ± 0.0027 |
| CNC1CCc2ccc(-c3c(Cl)cccc3OC)cc21 (stereo not drawn) [Example 21, [6-(2-Chloro-6-methoxy-phenyl)-indan-1-yl]-methyl-amine] | – | 0.0557 ± 0.0012 |
| Cc1nn(C)c(C)c1-c1ccc2c(c1)C([N+](C)(C)C)CC2 (stereo not drawn) [Example 36, Trimethyl-[6-(1,3,5-trimethyl-1H-pyrazol-4-yl)-indan-1-yl]-ammonium iodide] | – | 0.153 ± 0.0324 |
| CN[C@@H]1CCc2ccc(-c3c(C)nn(C)c3C)cc21 [Example 38, (R) Methyl-[6-(1,3,5-trimethyl-1H-pyrazol-4-yl)-indan-1-yl]-amine] | – | 0.0733 ± 0.0093 |
